The subject of assay [1] is Wnt/β-catenin pathway (Axin2) in B16 cells. Description: Quantitative PCR of Axin2 in B16 cells. Format: cell-based, murine. The protocol:
Cells were cultured for approximately 72 hours until they reached 80-90% confluency. RNA was purified using the RNeasy kit using the manufacturer's protocol (Qiagen; Maryland, MD). cDNA was synthesized using Superscript Reverse Transcriptase (Invitrogen; Grand Island, N.Y.). Light Cycler FastStart DNA Master SYBR Green1 (Roche; Mannheim, Germany) was used for real-time PCR as previously described (Major et al., Science 316:1043 (2007), which is hereby incorporated by reference in its entirety). Quantitative PCR results presented in the manuscript are representative of experiments performed on a minimum of three biologic replicates.

In assay [2] the test system is B16 melanoma cells. Description: MTT proliferation assay of B16 melanoma cells. It counts as cell-based, murine. In general terms: Tetrazolium assays rely on reduction of a dye to a coloured formazan, in cell work by metabolically active cells.
The test system of assay [3] is nuclear β-catenin in B16 cells. Kind of assay: Immunofluorescent staining of β-catenin in B16 cells. Format: cell-based, murine. The procedure: A polyclonal rabbit anti-β-catenin antibody was used for detection of β-catenin (1:1000 dilution for immunoblot, 1:200 dilution for immunohistochemistry). Cells were grown on 18 mm glass coverslips, for 48-72 hours, fixed using 4% paraformaldehyde, permeabilized using 0.25% Triton X-100, and then blocked with 10% goat serum. Goat anti-rabbit Alexa Fluor-568 antibody (Molecular Probes; Eugene, Oreg.) was diluted 1:1000. Cells were counterstained for nucleic acid with DAPI (Molecular Probes; Eugene, Oreg.). Paraffin-embedded nevus sections were stained using an antibody dilution of 1:200. Cellular lysates were obtained by lysing cells on plate with a 0.1% NP-40 based buffer and analyzed by NuPage 4-12% gradient gels (Invitrogen; Grand Island, N.Y.). The WNT5A antibody was obtained from Cell Signaling Technologies (Danvers, Mass.).

Assay [4] concerns human melanoma cell lines. Description: Proliferation of human melanoma cell lines (hematocytometer or MTT assay). It counts as cell-based. The settings on record: 10 mM lithium chloride, 3-7 days, FIG. 4D.

Take `O=C1Nc2cc(Br)ccc2/C1=C1/Nc2ccccc2/C1=N\O` [BIO]: the “Axin2 levels by quantitative PCR” value in assay [1] (1 μM BIO vs control cells, FIG. 5D) is reported as “increased Axing levels”. Moreover, the “Proliferation by MTT assay” value in assay [2] (1 μM BIO vs control cells, FIG. 5F) is listed as “decreased proliferation”. Also, the “Nuclear β-catenin by immunofluorescent staining” value in assay [3] (1 μM BIO vs DMSO, FIG. 5B) is “increased nuclear β-catenin”.
Regarding `[Cl-].[Li+]` [lithium chloride], the “Axin2 levels by quantitative PCR” value in assay [1] (10 mM lithium chloride vs control cells, FIG. 5C) is given as “increased Axing levels”. Besides, in assay [2] (10 mM lithium chloride vs control cells, FIG. 5E), the “Proliferation by MTT assay” value is given as “decreased proliferation”. Besides, the “Proliferation, normalized to growth in 10 mM sodium chloride” value in assay [4] is “inhibited proliferation in all human melanoma cell lines tested”. In addition, the “Nuclear β-catenin by immunofluorescent staining” value in assay [3] (10 mM lithium chloride vs 10 mM sodium chloride, FIG. 5A) is “increased nuclear β-catenin”.

Values taken from patent publication US20120040916A1, “MOLECULAR INHIBITORS OF THE WNT/BETA-CATENIN PATHWAY” (MASSACHUSETTS INSTITUTE OF TECHNOLOGY, priority 2008, published 2012).
